In US9040712B2, “Thiadiazole analogs thereof and methods for treating SMN-deficiency-related-conditions” (NOVARTIS AG, priority 2013, dated 2015):

tested on: SMN protein; assay: cellular SMN ELISA (SMN protein elevation); assay type: cell-based; conditions: myoblast cell line derived from SMNdelta7 mouse model; 24 hours compound treatment; concentration range 100 pM-10 uM
Procedure: A cellular SMN ELISA was used to measure the effects of low molecular weight compounds on SMN protein elevation. Cells from a myoblast cell line derived from the SMNdelta7 mouse model (kind gift from Steve Burden, NYU) were seeded into a 384-well plate at a density of 3000 cells/well and treated with compounds for 24 hours. ELISA capture plates were prepared by coating 384-well plates (Immulon 4HBX) with 0.5 ug/mL of anti-SMN mAb (BD Science, Catalog number 610647) at 4° C. overnight. The plates were washed 5 times with 110 uL of PBS-Tween (0.05% Tween-20, PBST), blocked with 100 uL of 1% BSA in PBST for 2 hours and washed (5 times) with 100 uL of PBST. After 24 hours of compound treatment cells were lysed in a modified RIPA-buffer, on ice for 1 hour. 20 uL of lysate and 20 uL of 1% BSA were then added to the ELISA capture plates and incubated at 4° C. overnight. Plates were washed (5 times) with PBST and then incubated with 1:100 dilution of primary rabbit anti-SMN polyclonal antibody (Santa cruz, Catalog number SC-15320) at room temperature for 1 hour and subsequently washed (5 times) with 110 uL of PBST. This was followed by addition of 1:100 Goat anti-Rabbit IgG-HRP linked (Cell Signaling, Catalog number 7074) secondary antibody for 1 hour. Plates were then washed with PBST and incubated with 40 uL TMB substrate (Cell Signaling, Catalog number 7004L) at room temperature for 1-10 minutes with shaking. The reaction was stopped by addition of 40 uL of stop solution (Cell signaling, Catalog number 7002L) and absorption was measured at 450 nm. Data was reported as fold activation over DMSO control and EC50. ELISA assay condition: compound concentration range 100 pM-10 uM.

Structure (SMILES)	EC50 [nM]	SMN Activity Fold (fold activation over DMSO control) [fold]
COc1ccc(-c2ccc(-c3nnc(N(C)C4CC(C)(C)NC(C)(C)C4)s3)c(Cl)c2)cn1 [Example 44, 5-(2-chloro-4-(6-methoxypyridin-3-yl)phenyl)-N-methyl-N-(2,2,6,6-tetramethylpiperidin-4-yl)-1,3,4-thiadiazol-2-amine]	4920	2.26
COc1cc(-n2cccn2)ccc1-c1nnc(NC2CC(C)(C)N(C)C(C)(C)C2)s1 [Example 5, 5-(2-Methoxy-4-(1H-pyrazol-1-yl)phenyl)-N-(1,2,2,6,6-pentamethylpiperidin-4-yl)-1,3,4-thiadiazol-2-amine]	87	2.88
CN(c1nnc(-c2cc3ccccc3[nH]c2=O)s1)C1CC(C)(C)NC(C)(C)C1 [Example 103, 3-(5-(methyl(2,2,6,6-tetramethylpiperidin-4-yl)amino)-1,3,4-thiadiazol-2-yl)quinolin-2(1H)-one]	161	2.47
Cn1cc(-c2ccc(-c3nnc(N4CC5(CCNCC5)C4)s3)c(O)c2)cn1 [Example 95, 2-(5-(2,7-diazaspiro[3.5]nonan-2-yl)-1,3,4-thiadiazol-2-yl)-5-(1-methyl-1H-pyrazol-4-yl)phenol]	53	2.44
Oc1ccc2cc(-c3nnc(N4C[C@H]5CNC[C@H]5C4)s3)c(O)cc2c1 [Example 21, 3-(5-((3aR,6aS)-Hexahydropyrrolo[3,4-c]pyrrol-2(1H)-yl)-1,3,4-thiadiazol-2-yl)naphthalene-2,7-diol]	323	2.66
COc1cc(-c2cn[nH]c2)cc(F)c1-c1nnc(N2C[C@H]3CN(C)C[C@H]3C2)s1 [Example 62, 2-(2-fluoro-6-methoxy-4-(1H-pyrazol-4-yl)phenyl)-5-((3aR,6aS)-5-methylhexahydro-pyrrolo[3,4-c]pyrrol-2(1H)-yl)-1,3,4-thiadiazole]	3640	2.01
Cc1cc(-c2cnn(C)c2)ccc1-c1nnc(N(C)C2CC(C)(C)NC(C)(C)C2)s1 [Example 11, N-Methyl-5-(2-methyl-4-(1-methyl-1H-pyrazol-4-yl)phenyl)-N-(2,2,6,6-tetramethylpiperidin-4-yl)-1,3,4-thiadiazol-2-amine]	684	2.84
CN(c1nnc(-c2cc3ccccc3n(C)c2=O)s1)C1CC(C)(C)NC(C)(C)C1 [Example 104, 1-methyl-3-(5-(methyl(2,2,6,6-tetramethylpiperidin-4-yl)amino)-1,3,4-thiadiazol-2-yl)quinolin-2(1H)-one]	100	2.76
COc1cc(-n2cccn2)ccc1-c1nnc(C2=CCNCC2)s1 [Example 29, 2-(2-Methoxy-4-(1H-pyrazol-1-yl)phenyl)-5-(1,2,3,6-tetrahydropyridin-4-yl)-1,3,4-thiadiazole]	879	2.46
COc1cc(-n2cccn2)ccc1-c1nnc(N(C)C2CC(C)(C)NC(C)(C)C2)s1 [Example 1, 5-(2-methoxy-4-(1H-pyrazol-1-yl)phenyl)-N-methyl-N-(2,2,6,6-tetramethylpiperidin-4-yl)-1,3,4-thiadiazol-2-amine]	63	2.45
CN(c1nnc(-c2cc3cc(C#N)ccc3s2)s1)C1CC(C)(C)NC(C)(C)C1 [Example 108, 2-(5-(methyl(2,2,6,6-tetramethylpiperidin-4-yl)amino)-1,3,4-thiadiazol-2-yl)benzo[b]thiophene-5-carbonitrile]	539	2.72
CN(c1nnc(-c2c(O)cc(-c3ccn(C)c(=O)c3)cc2OC(F)(F)F)s1)C1CC(C)(C)NC(C)(C)C1 [Example 60, 4-(3-hydroxy-4-(5-(methyl(2,2,6,6-tetra-methylpiperidin-4-yl)amino)-1,3,4-thiadiazol-2-yl)-5-(trifluoromethoxy)phenyl)-1-methylpyridin-2(1H)-one]	53	2.69
CN(c1nnc(-c2c(O)cc(-c3cnn(C)c3)cc2Cl)s1)C1CC(C)(C)NC(C)(C)C1 [Example 26, 3-Chloro-2-(5-(methyl(2,2,6,6-tetramethylpiperidin-4-yl)amino)-1,3,4-thiadiazol-2-yl)-5-(1-methyl-1H-pyrazol-4-yl)phenol]		2.26
CN1C[C@@H]2CN(c3nnc(-c4ccc(-n5ccnc5)cc4Cl)s3)C[C@@H]2C1 [Example 70, 2-(2-chloro-4-(1H-imidazol-1-yl)phenyl)-5-((3aR,6aS)-5-methylhexahydropyrrolo[3,4-c]pyrrol-2(1H)-yl)-1,3,4-thiadiazole]	2570	2.17
CNc1ccn(-c2ccc(-c3nnc(N(C)C4CC(C)(C)NC(C)(C)C4)s3)c(O)c2)n1 [Example 89, 2-(5-(methyl(2,2,6,6-tetramethylpiperidin-4-yl)amino)-1,3,4-thiadiazol-2-yl)-5-(3-(methylamino)-1H-pyrazol-1-yl)phenol]	106	2.85
CN(c1nnc(-c2ccc(-c3cn[nH]c3)c(F)c2F)s1)C1CC(C)(C)NC(C)(C)C1 [Example 48, 5-(2,3-difluoro-4-(1H-pyrazol-4-yl)phenyl)-N-methyl-N-(2,2,6,6-tetramethylpiperidin-4-yl)-1,3,4-thiadiazol-2-amine]	33	3.04
Cc1nc(C)c(-c2ccc(-c3nnc(N(C)C4CC(C)(C)NC(C)(C)C4)s3)c(F)c2F)s1 [Example 59, 5-(4-(2,4-dimethylthiazol-5-yl)-2,3-difluorophenyl)-N-methyl-N-(2,2,6,6-tetramethylpiperidin-4-yl)-1,3,4-thiadiazol-2-amine]	1500	2.69
CN1C[C@@H]2CN(c3nnc(-c4ccc(-c5cn[nH]c5)cc4F)s3)C[C@@H]2C1 [Example 84, 2-(2-fluoro-4-(1H-pyrazol-4-yl)phenyl)-5-((3aR,6aS)-5-methylhexahydropyrrolo[3,4-c]pyrrol-2(1H)-yl)-1,3,4-thiadiazole]	193	2.11
CN(c1nnc(-c2ncc(-c3cn[nH]c3)cc2F)s1)C1CC(C)(C)NC(C)(C)C1 [Example 55, 5-(3-fluoro-5-(1H-pyrazol-4-yl)pyridin-2-yl)-N-methyl-N-(2,2,6,6-tetramethylpiperidin-4-yl)-1,3,4-thiadiazol-2-amine]	1010	2.75
COc1cc(-n2cccn2)ccc1-c1nnc(CC2CC(C)(C)NC(C)(C)C2)s1 [Example 98, 2-(2-methoxy-4-(1H-pyrazol-1-yl)phenyl)-5-((2,2,6,6-tetramethylpiperidin-4-yl)methyl)-1,3,4-thiadiazole]	818	2.19
Cn1cc(-c2ccc(-c3nnc(N4CC5(CCCNC5)C4)s3)c(O)c2)cn1 [Example 94, 2-(5-(2,6-diazaspiro[3.5]nonan-2-yl)-1,3,4-thiadiazol-2-yl)-5-(1-methyl-1H-pyrazol-4-yl)phenol]	155	2.59
